Measured values: US8067424B2, “Selective inhibitors for cyclin-dependent kinases” (Emory University, priority 2007, dated 2011)
Like-named read-outs stand apart in the source and are kept apart here.

How the values were obtained:
Type in all cases: biochemical
[1] = biological target: P38β MAPK (Homo sapiens, UniProt Q15759); assay: Kinase screen: SAPK 2b/p38β2 assay
Procedure: (§1) Generally, the same procedure was used for all assays. Since the total assay volume was 25.5 microliters, 0.5 microliters of inhibitors at 51× assay concentration were added to the plates before any other addition.
(§2) The basic procedure was to add 0.5 microliters inhibitor/control in DMSO to plate. Fifteen microliters of enzyme/substrate/buffer mix were added and incubated for 5 min. Ten microliters MgATP at the relevant concentration were added and incubated for 30 min. The assay was stopped by adding 5 microliters of 3% orthophosphoric acid. The assay was transferred to a p81 filter plate and read in a scintillation counter of 30 sec/well. Note that this assay procedure was not followed for MKK1, which instead involved a two-step assay, and PKC alpha, which required the addition of lipid vesicles.
SAPK 2b/p38β2 assay: SAPK 2b/p38β2 (5-20 mU diluted in 50 mM Tris pH 7.5, 0.1 mM EGTA, 0.1 mM Na3VO4, 0.1% b-mercaptoethanol, 1 mg/ml BSA) was assayed against MBP in a final volume of 25.5 μl containing 25 mM Tris pH 7.5, 0.1 mM EGTA, 0.33 mg/ml MBP, 10 mM magnesium acetate and 0.02 mM [33P-g-ATP] (50-1000 cpm/pmole) and incubated for 30 min at room temperature. Assays were stopped by addition of 5 μl of 0.5 M (3%) orthophosphoric acid and then harvested onto P81 Unifilter plates with a wash buffer of 50 mM orthophosphoric acid.

[2] = biological target: ROCK 2 (Homo sapiens, UniProt O75116); assay: Kinase screen: ROCK-II (ROKa) assay
Procedure: as §1, §2
ROCK-II (ROKa) assay: ROCK-II (ROKa) (5-20 mU diluted in 50 mM Tris pH 7.5, 0.1 mM EGTA, 0.1% b-mercaptoethanol, 1 mg/ml BSA) was assayed against Long S6 substrate peptide ([…]) (SEQ ID NO: 10) in a final volume of 25.5 μl containing 50 mM Tris pH 7.5, 0.1 mM EGTA, 30 μM Long S6 substrate peptide, 10 mM magnesium acetate and 0.02 mM [33P-g-ATP] (50-1000 cpm/pmole) and incubated for 30 min at room temperature. Assays were stopped by addition of 5 μl of 0.5 M (3%) orthophosphoric acid and then harvested onto P81 Unifilter plates with a wash buffer of 50 mM orthophosphoric acid.

[3] = biological target: MNK1 (Homo sapiens, UniProt Q9BUB5); assay: Kinase screen: MNK1 assay
Procedure: as §1, §2
MNK1 assay: 5-20 mU of MNK1 (diluted in 50 mM Tris (pH 7.5), 0.1 mM EGTA, 1 mg/ml BSA, 0.1%, b-Mercaptoethanol) was assayed against substrate peptide (eIF4E) in a final volume of 25.5 μl containing 50 mM Tris (pH 7.5), 0.1 mM EGTA, 0.1%, b-Mercaptoethanol, 0.5 mg/ml substrate peptide, 10 mM magnesium acetate and 0.05 mM [33P-g-ATP](500-1000 cpm/pmole) and incubated for 30 mins at room temperature. Assays were stopped by addition of 5 μl of 0.5M (3%) orthophosphoric acid. Assays were harvested onto P81 Unifilter plates using a wash buffer of 50 mM orthophosphoric acid.

[4] = biological target: MAPKAP-K2 (Homo sapiens, UniProt P49137); assay: Kinase screen: MAPKAP-K2 assay
Procedure: as §1, §2
MAPKAP-K2 assay: MAPKAP-K2 (5-20 mU diluted in 20 mM MOPS pH 7.5, 1 mM EDTA, 0.01% Brij35, 5% glycerol, 0.1% b-mercaptoethanol, 1 mg/ml BSA) was assayed against […] (SEQ ID NO: 3) in a final volume of […] containing 50 mM Na-b-glycerophosphate pH 7.5, 0.5 mM EDTA, 30 μM substrate peptide, 10 mM magnesium acetate and 0.02 mM [33P-g-ATP] (50-1000 cpm/pmole) and incubated for 30 min at room temperature. Assays were stopped by addition of 5 μl of 0.5 M (3%) orthophosphoric acid and then harvested onto P81 Unifilter plates with a wash buffer of 50 mM orthophosphoric acid.

[5] = biological target: T1, DYRK2 (Homo sapiens, UniProt Q92630); assay: Kinase screen: DYRK2 assay
T1 sequence (Q92630 1-601): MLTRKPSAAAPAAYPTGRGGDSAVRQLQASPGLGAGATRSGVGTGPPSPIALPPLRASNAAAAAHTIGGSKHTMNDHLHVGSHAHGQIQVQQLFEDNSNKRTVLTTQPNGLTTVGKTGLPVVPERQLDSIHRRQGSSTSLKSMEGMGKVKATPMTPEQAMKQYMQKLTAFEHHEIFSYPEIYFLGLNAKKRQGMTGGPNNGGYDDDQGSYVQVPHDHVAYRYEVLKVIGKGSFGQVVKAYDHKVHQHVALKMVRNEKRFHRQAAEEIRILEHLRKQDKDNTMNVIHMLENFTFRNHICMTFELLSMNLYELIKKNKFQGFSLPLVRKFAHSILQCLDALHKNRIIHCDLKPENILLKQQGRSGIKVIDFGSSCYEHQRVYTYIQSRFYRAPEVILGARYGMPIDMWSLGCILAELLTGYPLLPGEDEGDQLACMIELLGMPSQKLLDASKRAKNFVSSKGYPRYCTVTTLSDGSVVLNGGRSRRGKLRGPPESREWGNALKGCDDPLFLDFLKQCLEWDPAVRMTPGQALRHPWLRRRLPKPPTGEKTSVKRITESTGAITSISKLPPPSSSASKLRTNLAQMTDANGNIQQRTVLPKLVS
Procedure: as §1, §2
DYRK2 assay: DYRK2 (5-20 mU of diluted in 50 mM Tris pH7.5, 0.1 mM EGTA) was assayed against Woodtide ([…]) (SEQ ID NO: 29) in a final volume of 25.5 μ1 containing 50 mM Tris pH 7.5, 0.1 mM EGTA, 350 μM substrate peptide, 10 mM Magnesium acetate and 0.05 mM [33P-g-ATP] (50-1000 cpm/pmole) and incubated for 30 min at room temperature. Assays were stopped by addition of 5 μl of 0.5 M (3%) orthophosphoric acid and then harvested onto P81 Unifilter plates with a wash buffer of 50 mM orthophosphoric acid.

[6] = 10 micromolar compound, read-out: mean activity remaining (as a percentage of the original activity), p38b MAPK
[7] = 10 micromolar compound, read-out: mean activity remaining (as a percentage of the original activity), ROCK 2
[8] = 10 micromolar compound, read-out: mean activity remaining (as a percentage of the original activity), MNK1
[9] = 10 micromolar compound, read-out: mean activity remaining (as a percentage of the original activity), MAPKAP-K2
[10] = 10 micromolar compound, read-out: mean activity remaining (as a percentage of the original activity), DYRK 2

Chain of MNK1 (Q9BUB5 whole entry, species assumed): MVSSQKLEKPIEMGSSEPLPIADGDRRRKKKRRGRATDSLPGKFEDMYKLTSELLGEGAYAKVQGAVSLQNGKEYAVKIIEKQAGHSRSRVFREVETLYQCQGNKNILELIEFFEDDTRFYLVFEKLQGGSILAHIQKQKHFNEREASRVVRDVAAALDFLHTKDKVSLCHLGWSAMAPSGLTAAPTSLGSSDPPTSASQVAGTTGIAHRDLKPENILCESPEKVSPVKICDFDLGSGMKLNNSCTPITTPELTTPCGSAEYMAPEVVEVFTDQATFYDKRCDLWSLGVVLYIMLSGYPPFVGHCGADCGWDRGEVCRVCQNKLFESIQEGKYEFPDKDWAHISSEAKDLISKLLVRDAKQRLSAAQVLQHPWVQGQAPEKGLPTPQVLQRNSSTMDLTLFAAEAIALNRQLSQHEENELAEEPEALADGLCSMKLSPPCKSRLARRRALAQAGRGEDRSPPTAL
Chain of MAPKAP-K2 (P49137 whole entry, species assumed): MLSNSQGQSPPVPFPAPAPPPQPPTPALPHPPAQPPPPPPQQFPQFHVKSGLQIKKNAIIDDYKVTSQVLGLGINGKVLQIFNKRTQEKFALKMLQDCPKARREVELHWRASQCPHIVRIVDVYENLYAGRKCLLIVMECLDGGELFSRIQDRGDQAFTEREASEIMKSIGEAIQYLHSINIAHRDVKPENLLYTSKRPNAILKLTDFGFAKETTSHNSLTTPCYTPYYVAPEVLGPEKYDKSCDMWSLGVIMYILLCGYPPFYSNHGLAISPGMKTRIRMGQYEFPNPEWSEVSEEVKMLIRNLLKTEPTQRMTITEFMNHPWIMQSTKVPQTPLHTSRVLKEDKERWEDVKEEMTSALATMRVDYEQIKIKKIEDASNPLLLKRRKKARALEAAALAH
Chain of ROCK 2 (O75116 whole entry, species assumed): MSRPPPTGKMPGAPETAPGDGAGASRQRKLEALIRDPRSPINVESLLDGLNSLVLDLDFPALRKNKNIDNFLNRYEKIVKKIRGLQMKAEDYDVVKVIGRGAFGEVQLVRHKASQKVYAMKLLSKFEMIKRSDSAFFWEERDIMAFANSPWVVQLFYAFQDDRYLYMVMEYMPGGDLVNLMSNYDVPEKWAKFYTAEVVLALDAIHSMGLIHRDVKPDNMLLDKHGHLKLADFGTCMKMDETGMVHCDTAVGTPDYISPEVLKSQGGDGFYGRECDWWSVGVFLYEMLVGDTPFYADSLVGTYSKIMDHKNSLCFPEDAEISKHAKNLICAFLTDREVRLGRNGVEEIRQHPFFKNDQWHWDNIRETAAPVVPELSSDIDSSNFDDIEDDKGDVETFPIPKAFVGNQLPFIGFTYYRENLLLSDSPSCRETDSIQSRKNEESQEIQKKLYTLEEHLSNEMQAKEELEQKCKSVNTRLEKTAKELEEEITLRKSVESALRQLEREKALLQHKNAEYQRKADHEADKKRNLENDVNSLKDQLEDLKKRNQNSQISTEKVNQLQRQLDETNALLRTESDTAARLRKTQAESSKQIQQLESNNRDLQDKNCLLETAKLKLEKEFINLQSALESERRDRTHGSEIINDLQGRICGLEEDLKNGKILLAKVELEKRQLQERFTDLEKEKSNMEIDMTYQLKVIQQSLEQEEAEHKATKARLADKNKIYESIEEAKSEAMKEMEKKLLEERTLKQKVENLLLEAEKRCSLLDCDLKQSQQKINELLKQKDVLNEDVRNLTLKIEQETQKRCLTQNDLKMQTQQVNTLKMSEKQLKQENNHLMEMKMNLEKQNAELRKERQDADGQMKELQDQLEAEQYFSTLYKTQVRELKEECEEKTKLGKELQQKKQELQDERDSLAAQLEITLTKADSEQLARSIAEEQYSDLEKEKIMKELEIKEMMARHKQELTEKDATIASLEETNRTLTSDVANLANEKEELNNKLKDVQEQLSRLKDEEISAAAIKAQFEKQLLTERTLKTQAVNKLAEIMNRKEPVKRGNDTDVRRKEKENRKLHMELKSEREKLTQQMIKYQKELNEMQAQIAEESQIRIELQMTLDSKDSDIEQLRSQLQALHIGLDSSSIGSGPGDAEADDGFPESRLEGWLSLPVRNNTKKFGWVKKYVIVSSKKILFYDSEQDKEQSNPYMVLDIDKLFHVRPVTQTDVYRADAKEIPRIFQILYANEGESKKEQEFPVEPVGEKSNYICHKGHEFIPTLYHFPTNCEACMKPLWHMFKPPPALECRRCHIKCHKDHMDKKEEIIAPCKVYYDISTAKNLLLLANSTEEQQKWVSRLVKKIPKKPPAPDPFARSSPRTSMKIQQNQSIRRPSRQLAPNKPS
Chain of P38β MAPK (Q15759 whole entry): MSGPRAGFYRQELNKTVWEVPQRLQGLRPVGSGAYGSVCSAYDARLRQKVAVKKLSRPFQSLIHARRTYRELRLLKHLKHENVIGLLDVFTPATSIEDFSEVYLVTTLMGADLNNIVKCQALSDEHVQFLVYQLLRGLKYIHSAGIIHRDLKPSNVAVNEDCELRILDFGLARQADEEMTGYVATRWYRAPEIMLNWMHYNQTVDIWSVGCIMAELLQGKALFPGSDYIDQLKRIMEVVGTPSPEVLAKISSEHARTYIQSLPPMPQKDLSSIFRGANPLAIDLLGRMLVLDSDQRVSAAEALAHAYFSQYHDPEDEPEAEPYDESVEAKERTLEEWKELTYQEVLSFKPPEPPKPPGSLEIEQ

| SMILES | remaining activity at 10 µM [1, 6] | remaining activity at 10 µM [2, 7] | remaining activity at 10 µM [3, 8] | remaining activity at 10 µM [4, 9] | remaining activity at 10 µM [5, 10] | further results |
| --- | --- | --- | --- | --- | --- | --- |
| CC(C)c1cnn2c(NCc3ccccc3)cc(NCCCCCCCN)nc12 [BS-181] |  |  |  |  |  | remaining activity at 10 µM ([1]; P38β MAPK, 10 μM, read-out: Mean Remaining Enzyme Activity (%)): 115%; remaining activity at 10 µM ([2]; ROCK 2, 10 μM, read-out: Mean Remaining Enzyme Activity (%)): 76%; remaining activity at 10 µM ([3]; MNK1, 10 μM, read-out: Mean Remaining Enzyme Activity (%)): 105%; remaining activity at 10 µM ([4]; MAPKAP-K2, 10 μM, read-out: Mean Remaining Enzyme Activity (%)): 88%; remaining activity at 10 µM ([5]; DYRK2, 10 μM, read-out: Mean Remaining Enzyme Activity (%)): 94% |
| C=C[C@H](CO)Nc1cc(NCc2ccccc2)n2ncc(C(C)C)c2n1 [ICEC0065] | 104% | 95% | 90% | 111% | 90% |  |
| CC[C@H](CO)Nc1cc(NCc2ccccc2)n2ncc(C(C)C)c2n1 [ICEC0067] | 98% | 85% | 86% | 110% | 90% |  |
| CC(C)c1cnn2c(NCc3ccccc3)cc(N[C@@H](CO)[C@H](O)CO)nc12 [ICEC0318, (3S)-3-(7-(Benzylamino)-3-isopropylpyrazolo[1,5-a]pyrimidin-5-ylamino)butane-1,2,4-triol] | 94% | 102% | 98% | 111% | 75% |  |
| CC(C)c1cnn2c(NCc3ccccc3F)cc(NCCCCCN)nc12 [ICEC-0232] |  |  |  |  |  | mean activity remaining (as a percentage of the original activity), p38b MAPK ([1]; 10 micromolar compound): 102%; mean activity remaining (as a percentage of the original activity), ROCK 2 ([2]; 10 micromolar compound): 86%; mean activity remaining (as a percentage of the original activity), MNK1 ([3]; 10 micromolar compound): 97%; mean activity remaining (as a percentage of the original activity), MAPKAP-K2 ([4]; 10 micromolar compound): 88%; mean activity remaining (as a percentage of the original activity), DYRK 2 ([5]; 10 micromolar compound): 68% |
